Results taken from patent publication US8283106B2, “Sulfonic acid salt and derivative thereof, photoacid generator agent, and resist material and pattern formation method using the photoacid generator agent” (Central Glass Company, Limited, priority 2007, dated 2012).
Read-outs that look alike come from different tables or passages of the source.

What was measured:
[1] = Resist compatibility of acid generator with base resin in resist composition; assay type: physicochemical; conditions: for Compatibility: acid generator (1.0), PGMEA (400)
Description: Resist compositions were prepared using the above sulfonic acid onium salts PAG 1 and PAG 2 as acid generators and the following polymers (Resin 1 to 5) as base resins. Resist solutions were obtained by filtering the resist compositions with […] membrane filters, respectively.
Each of the obtained resist solutions was spin-coated on a silicon wafer to form a resist film of 250 nm thickness. The resist film was prebaked at 110° C., exposed to a 248-nm ultraviolet ray through a photomask, and then, subjected to post exposure baking treatment at 120° C. After that, the resist film was developed with a […] aqueous tetramethylammonium hydroxide solution for 1 minute at 23° C.
For comparison purposes, the above sulfonic acid onium salts PAG 3, PAG 4 and PAG 7 were tested for the resist compatibility and resist resolution under the same conditions as to the above working examples.

[2] = Resist solvent solubility; assay type: physicochemical
Description: Using propylene glycol monomethyl ether acetate (PGMEA) as a resist solvent, the solubility of PAG 1 to PAG 6 in the resist solvent was measured.

| Molecule | Compatibility ([1]; Resin 1 (40 pts. wt.)) | Compatibility ([1]; Resin 2 (40 pts. wt.)) | Compatibility ([1]; Resin 3 (40 pts. wt.)) | Compatibility ([1]; Resin 4 (40 pts. wt.)) | Compatibility ([1]; Resin 5 (40 pts. wt.)) | resist compatibility compared with the conventional salts ([1]; summary of TABLES 2 and 3) | resist solvent solubility relative to urethane bond-free sulfonic acid onium salts (PAG 3 to PAG 6) ([2]; PGMEA) | Solubility ([2]; resist solvent propylene glycol monomethyl ether acetate (PGMEA)) | Solubility [2] |
| --- | --- | --- | --- | --- | --- | --- | --- | --- | --- |
| O=C(NC12CC3CC(CC(C3)C1)C2)OCC(F)(F)S(=O)(=O)O [PAG 2, triphenylsulfonium adamantane-1-yl-carbamic acid-2,2-difluoroethylsulfonate] | Good | Good | Good | Good | Good | higher resist compatibility | twice or more higher | 0.7 parts by weight of PAG dissolved in 100 parts by weigh of PGMEA |  |
| O=C(OCC12CC3CC(CC(C3)C1)C2)C(F)(F)S(=O)(=O)O [PAG 4, triphenylsulfonium (adamantane-1-yl-methyl)oxycarbonyldifluoromethanesulfonate] | Good | Good | Good | Good | Good |  |  |  | 0.3 parts by weight of PAG dissolved in 100 parts by weigh of PGMEA |
| triphenylsulfonium cyclohexyloxycarbonyldifluoromethanesulfonate [PAG 3] | Slightly poor | Slightly poor | Slightly poor | Slightly poor | Slightly poor |  |  |  | 0.4 parts by weight of PAG dissolved in 100 parts by weigh of PGMEA |
| O=C(OCC(F)(F)S(=O)(=O)O)C12CC3CC(CC(C3)C1)C2 [PAG 6, triphenylsulfonium 2-(1′-adamantane)carbonyloxy-1,1-difluoroethanesulfonate] |  |  |  |  |  |  |  |  | 0.2 parts by weight of PAG dissolved in 100 parts by weigh of PGMEA |
